Measurements taken from the NIST ThermoML archive (doi:10.1021/je100522z).

Columns and labels:
[1] = 101.33 kPa, Liquid
[2] = molar heat capacity at constant pressure; details: 101.33 kPa, Liquid, Small sample (50 mg) DSC
[3] = excess molar enthalpy (molar enthalpy of mixing); xn = mol fraction of the nth substance listed; details: 101.3 kPa, Liquid, Calvet calorimetry

C[n+]1ccn(CCO)c1.O=C([O-])C(F)(F)F
Details | mass density, [1] [kg/m3] | molar heat capacity at constant pressure, [2] [J/K/mol]
283.15 K | – | 362
293.15 K | 1370.39 | 367
298.15 K | 1366.36 | –
303.15 K | 1362.51 | 371
313.15 K | 1354.8 | 376
323.15 K | 1346.98 | 381
333.15 K | 1339.46 | 387
343.15 K | 1331.98 | 394

CCOP(=O)([O-])OCC.CCn1cc[n+](C)c1 [1-ethyl-3-methylimidazolium diethyl phosphate]
Details | mass density, [1] [kg/m3] | molar heat capacity at constant pressure, [2] [J/K/mol]
283.15 K | – | 517
293.15 K | 1148.92 | 528
298.15 K | 1145.47 | –
303.15 K | 1142.03 | 533
313.15 K | 1135.19 | 540
323.15 K | 1128.57 | 545
333.15 K | 1121.94 | 547
343.15 K | 1115.36 | 557

CCOP(=O)([O-])OCC.CCn1cc[n+](C)c1 [1-ethyl-3-methylimidazolium diethyl phosphate] + O
[3]
Details | excess molar enthalpy [kcal/mol]
313.13 K, x2 = 0.2497 | -0.813
313.13 K, x2 = 0.2506 | -0.815
313.13 K, x2 = 0.5025 | -1.34
313.13 K, x2 = 0.5036 | -1.34
313.13 K, x2 = 0.7514 | -1.25
313.13 K, x2 = 0.7538 | -1.25
333.13 K, x2 = 0.2456 | -0.786
333.13 K, x2 = 0.2473 | -0.786
333.13 K, x2 = 0.4977 | -1.31
333.13 K, x2 = 0.508 | -1.32
333.13 K, x2 = 0.7491 | -1.23
333.13 K, x2 = 0.7512 | -1.22
348.12 K, x2 = 0.2452 | -0.779
348.12 K, x2 = 0.2477 | -0.796
348.12 K, x2 = 0.4992 | -1.29
348.12 K, x2 = 0.4996 | -1.29
348.12 K, x2 = 0.7481 | -1.19
348.12 K, x2 = 0.7485 | -1.18

CCn1cc[n+](C)c1.O=S(=O)([O-])O [1-ethyl-3-methylimidazolium hydrogen sulfate]
Details | mass density, [1] [kg/m3] | molar heat capacity at constant pressure, [2] [J/K/mol]
283.15 K | – | 290
293.15 K | 1369.28 | 294
298.15 K | 1365.79 | –
303.15 K | 1362.63 | 297
313.15 K | 1356.27 | 302
323.15 K | 1350.14 | 306
333.15 K | 1344.38 | 313
343.15 K | 1338.46 | 324

CCn1cc[n+](C)c1.CS(=O)(=O)[O-] [1-ethyl-3-methylimidazolium methanesulfonate]
Details | mass density, [1] [kg/m3] | molar heat capacity at constant pressure, [2] [J/K/mol]
283.15 K | – | 327
293.15 K | 1247.31 | 327
298.15 K | 1243.83 | –
303.15 K | 1240.45 | 330
313.15 K | 1233.48 | 334
323.15 K | 1227.03 | 339
333.15 K | 1220.33 | 344
343.15 K | 1213.79 | 350

CCn1cc[n+](C)c1.COS(=O)(=O)[O-] [1-ethyl-3-methylimidazolium methylsulfate]
Details | mass density, [1] [kg/m3] | molar heat capacity at constant pressure, [2] [J/K/mol]
283.15 K | – | 324
293.15 K | 1291.15 | 330
298.15 K | 1287.75 | –
303.15 K | 1284.37 | 332
313.15 K | 1277.61 | 337
323.15 K | 1270.87 | 343
333.15 K | 1264.22 | 347
343.15 K | 1257.72 | 354
